Experimental data: a melting point compilation (Tetko et al.; mined from patent text by program, amines drawn as free bases though some values may be those of a salt)

SMILES	melting point
COc1ccc2cn[nH]c(=O)c2c1	228 to 229 °C
CC(C)C1(C(=O)O)CCCCC1	102 °C
COc1ccc(C(=O)CCC(=O)N[C@@H](C)C(=O)O)cc1	100 to 102 °C
CSc1nc(Cl)ncc1C	73 to 76 °C
CCOC(=O)C1=C(C)NC(C)=C(C(=O)OCCOC)C1c1cccc(Cl)c1Cl (stereo not given)	139 °C
Nc1cn(C2CCN(c3c(F)cc4c(=O)c(C(=O)O)cn(C5CC5)c4c3F)C2)nn1 (stereo not given)	221 °C
N=C(N)Nc1nc(CSCCNC2=NS(=O)N=C2O)cs1 (stereo not given)	148 to 151 °C
NC(=O)c1snc(Cl)c1Cl	156 to 158 °C
FC(F)(F)c1cccc(CSc2nc3cnccc3[nH]2)c1	148 to 150 °C
O=C1Nc2cc(F)ccc2N2CCN(Cc3ccncc3)CC12 (stereo not given)	269 to 272 °C
O=C(O)c1cc(-c2ccccc2)cc2c(-c3ccccc3)c(Br)oc12	232 to 236 °C
CN(Cc1ccc(F)cc1)C1CCN(c2ccc(C(=O)O)cc2)CC1	256 to 258 °C
COP(=O)(CC1(O)O[C@H](COCc2ccccc2)[C@@H](OCc2ccccc2)[C@H](OCc2ccccc2)[C@H]1OCc1ccccc1)OC (stereo not given in full)	112 to 113 °C
CCCC1(CC(=O)O)OC=CC2=C1NC1=C3CCCCC3CCC21 (stereo not given)	78 to 80 °C
CC(C)(C)OC(=O)N(C(=O)OC(C)(C)C)c1c(C#N)csc1C(=O)O	159 to 160 °C
CC(C)(C)OC(=O)NC1CCCCCC=CC2CC2(C(=O)NS(=O)(=O)C2CC2)NC(=O)C2CC(OC(=O)c3ccc(Cl)cc3)CN2C1=O (stereo not given)	143 to 145 °C
COc1ccnc(OC)c1CON=C(C)c1cc(C)cc(C)n1	114 to 116 °C
Cc1c(N2CC[C@H]([C@@H](C)NC(=O)OC(C)(C)C)C2)c(F)cc2c(=O)n(N)c(=O)n(C3CC3)c12	84 to 86 °C
O=C(Nc1nnn[nH]1)c1cccc([N+](=O)[O-])c1	276 °C
CCCCCCCCOc1cc(CBr)c(OCCCCCCCC)cc1CBr	83 °C
COc1ccc(C2(O)CCS(=O)(=O)CC2)cc1OC1CCCC1	147 to 149 °C
O=C(CO)N1CCN(C(=O)CO)CC1	169 to 173 °C
NC(=O)C(c1ccc(C(=O)O)cc1)C(Cc1ccccc1)c1ccccc1N1CCCCC1 (stereo not given)	214 to 215 °C

SMILES	melting point
O=C1c2ccc(-c3ccccc3)cc2CC1Br (stereo not given)	99 to 100 °C
CS(=O)(=O)O[C@@H]1CCc2c(F)cc(F)cc2C1	79 to 80 °C
CCOC(=O)C1C=Nc2c(cccc2[N+](=O)[O-])C1=O (stereo not given)	241 to 243 °C
C#CCN1CCc2ccc([N+](=O)[O-])cc2CC1	122 to 125 °C
O=C1C2=C(CCCC2)C(=O)N1c1cc(OC2CCCCC2)c(Cl)cc1F	102 to 103 °C
NC(=S)NCC(c1ccccc1)c1ccccc1	205 to 207 °C
COc1cc(-c2nc(N(C)CCO)c3c(C)c(C#N)sc3n2)cc(OC)c1OC	164 to 166 °C
NC(=O)c1cnc(Oc2ccc(C3OCCO3)cc2F)cn1	169 to 172 °C
Nc1ccc(S(=O)(=O)Nc2cc(N)nc(S)n2)cc1	232 to 234 °C
CCCCCCCCNC(=O)c1cc(C(C)(C)C)c(O)c(C(C)(C)C)c1	133 to 135 °C
CSC(=NCCSCc1csc(NC(=N)N)n1)NC#N	127 to 134 °C
Cc1nc(C)c2c(n1)N(Cc1ccc(-c3ccccc3-c3nnnn3C(c3ccccc3)(c3ccccc3)c3ccccc3)cc1)C(=O)CC2	160 to 161 °C
Fc1ccc(C(c2ccc(F)cc2)N2CCN(CCCSc3ncnc4nc[nH]c34)CC2)cc1	90 to 93 °C
COc1cc(N)cc2c1nc(C(F)F)n2-c1nc(N2CCOCC2)nc(N2CCN(S(C)(=O)=O)CC2)n1	280 to 283 °C
Cc1nnsc1C(=O)Nc1ccc(-n2nc(-c3cccnc3)cc2C#N)cc1	215 to 218 °C
COc1ccccc1N1CCN(CC=CCN)CC1	63 to 67 °C
BrCc1ccc(-c2nnn(C(c3ccccc3)(c3ccccc3)c3ccccc3)n2)cc1	165 to 172 °C
CCCCc1cccn2c(=O)c(-c3nnn[nH]3)cnc12	256 to 258 °C
O=C(CCCCC(=O)Oc1cccc(O)c1O)Oc1cccc(O)c1O	110 to 111 °C
Cc1cccc(Nc2nc(N(C)C)ncc2S(=O)(=O)NC(=O)NC(C)C)c1	178 to 179 °C
Cn1c(C(F)(F)F)cc(=O)n(-c2cc(OCSc3ccc(Cl)cc3)c(Cl)cc2F)c1=O	141 to 142 °C
CCCCCC(CC(=O)Nc1cc(C(N)=O)ccc1C(C)(C)C)c1cc(C(N)=O)c(OC)cc1OC (stereo not given)	160 to 163 °C
O=C(NCC(C(=O)O)C(F)(F)F)Nc1ccccc1 (stereo not given)	180 to 181 °C

SMILES	melting point
Cc1c(-c2ccccc2)oc2c(CN=[N+]=[N-])cccc2c1=O	132 to 134 °C
Cc1ccc2c(c1)C(O)=C(C(=O)Nc1cncc(Cl)n1)N(C)S2(=O)=O	296 to 298 °C
C[C@@H]1Cc2c(N3CCN(C)CC3)c(F)cc3c(=O)c(C(=O)O)cn1c23	249 to 252 °C
COC(=O)CCn1c(C(=O)OCc2ccccc2)cc2c(C)c(C)c(OC)cc21	198 °C
O=C(O)c1ccccc1Sc1c(O)c2c(Cl)cc(Cl)cc2[nH]c1=O	> 300 °C
CS(=O)(=O)c1ccc(C(=O)c2cc(-c3cccnc3)c(N3CCOCC3)s2)cc1	147 °C
CC(C)(C)NS(=O)(=O)c1cccc(-c2ccc3cnc(Nc4ccc(=O)[nH]c4)nn23)c1	270 to 271 °C
COc1ccccc1CCl	69.5 to 70.5 °C
CC(C)N(Sc1nc2ccccc2s1)C(C)C	57 to 59 °C
C#Cc1cccc(N2C(=O)c3ccccc3C2=O)c1	197 to 198 °C
O=C1NCc2ccsc21	104 to 105 °C
Cc1c2c3c(ccc2nn1C)CCC3=CC#N	200 to 203 °C
O=[N+]([O-])c1cnn2c(-c3cccc(C(F)(F)F)c3)ccnc12	159 to 161 °C
Cc1cc2c(cc1N1CC(C)C(C)C1)OC(=O)C2C (stereo not given)	104 to 105 °C
Nc1c(Cl)cc(C(O)CNCCCCCOCCc2ccc(F)cc2)cc1Cl (stereo not given)	75 to 76 °C
CCn1c2c(c3ccccc31)S(=O)(=O)N(C)C(C(=O)Nc1ccccn1)=C2O	232 °C
COc1cccc(NC(=O)NC2N=C(c3ccccc3)c3ccc(C)cc3N(C)C2=O)c1 (stereo not given)	184 to 188 °C
O=C1Nc2ccccc2C12COc1ccc(F)cc12 (stereo not given)	224 to 226 °C
CCCCCNC(=O)[C@@H]1CCCN1C(=O)[C@@H](N)CC	140 to 141 °C
CN1C(=O)[C@@H](NC(=O)[C@H](N)Cc2ccccc2)N=C(C2CCCCC2)c2ccccc21	75 to 78 °C
Cc1nnc(-c2ccc3occ(-c4ccncc4Cl)c3c2)o1	147 to 148 °C
Cc1ccc(CO[C@H]2CO[C@@H](c3ccccc3)OC2)cc1C	79 to 80 °C

The next lines start with the values.

melting point	SMILES
157 to 158 °C	Cc1nnc(-c2ccc3occ(-c4ccc(CO)cc4)c3c2)o1
121 to 123 °C	Cc1ccc(S(=O)(=O)N(Cc2cc(C(C)(C)C)c(O)c(C(C)(C)C)c2)c2cccnc2)cc1
228 to 230 °C	CNC(=O)CC(C)(C)c1ccc(C(=O)Nc2cn3cc(Cl)ccc3n2)cc1
247 to 248 °C	Cc1cc(-c2ccc(-c3ccc(F)cc3)cc2)n[nH]c1=O
87 °C	COc1ccc(C(=O)c2ccccc2)cc1Cl
172 to 173 °C	CCCN(C(=O)OCC(Cl)(Cl)Cl)C1CN(C(=O)Nc2ccc(C(F)(F)F)cc2)N=C1c1ccc(Cl)cc1 (stereo not given)
190 to 191 °C	O=[N+]([O-])c1ccc(C=Cc2ccc(Cl)c(Cl)c2)cc1
182 to 184 °C	Nc1cc(OCc2cccc(Cl)c2)c(C(=O)O)cc1Cl
168 °C	O=C(COc1cc(-c2ccccc2)nc2cccc(Cl)c12)N1CCOCC1
> 260 °C	COc1ccc2cc3[nH]cc(C#N)c(=O)c3cc2c1
92 to 94 °C	O=C(OCc1ccc(Cl)cc1)c1ncccc1OCc1ccc(Cl)cc1
98 to 99 °C	COc1cc(C)nc(-c2ccc(CBr)cc2)n1
165 to 167 °C	COC(=O)c1ccc(-c2nc3c(OC)cccc3s2)cc1
122 to 124 °C	CCOC(=O)N1CCC(Nc2nccc(Oc3ccc(NC(=O)c4cc(F)cc(N5CCOCC5)c4)c4ccccc34)n2)CC1
182 to 184 °C	COc1ccc(Oc2c(N)cc(C(=O)O)cc2S)cc1
158 to 159 °C	CON=Cc1ccc2c(c1)ncn2-c1cccc(-c2ncccn2)c1

melting point	SMILES
118 to 119 °C	O=C(O)CCCc1ccc(-c2ccccc2)cc1
105 to 106 °C	CCOC(=O)CCc1ccc(OCc2ccc(OCc3nc(-c4ccccc4)oc3C)cc2)cc1
73 to 74 °C	CCOC(=O)C(Cc1ccc(Cl)c(OC(F)(F)C(F)F)c1)C(=O)c1ccc(F)cc1 (stereo not given)
204 to 206 °C	O=C1CC(c2ccc(Cl)cc2)CC(=O)N1c1ccncc1
155 to 156 °C	COC(=O)Cc1csc2c(OCc3cc(-c4ccc(Cl)cc4)on3)cccc12
133 to 135 °C	CC(C)OC(=O)c1cc(Cl)c(Cl)c(-c2ccc(Cl)cc2)n1
142 to 144 °C	COc1ccc(CCNC(=O)CCc2ccc(Cl)cc2)cc1C
201 °C	COc1ccccc1NC(=O)Nc1nc(N(CCC(=O)O)Cc2cccc(C)c2)nc(N2CCc3ccccc32)n1
70.5 to 72 °C	CCCCCCCCCCCCOc1ccc(NC(=O)C(=O)OCC)cc1
258 to 260 °C	O=c1c(Nc2ccc(Cl)cc2)nc2ccccc2n1-c1ccc(Cl)cc1
145 to 146 °C	COC(=O)[C@H](Cc1ccccc1)NC(=O)c1ccc(N)cc1
168 to 169 °C	CCCCC(=O)c1c(-c2ccc3c(Cl)c(OCc4nnn[nH]4)ccc3c2)oc2ccccc12
229 to 232 °C	COc1ccc(-c2cncn2-c2ccc(S(=O)(=O)NC(C)(C)C)cc2)cc1F
229 to 233 °C	CC(=O)Oc1cccc2sc(-c3ccc(C(=O)O)cc3)nc12
95 °C	CCOC(=O)COc1ccc(Oc2ccc3cc(Cl)ccc3n2)cc1
221 °C	CCOC(=O)COc1ccccc1Cn1c(-c2ccc(C(F)(F)F)cc2)c(C)c2cc(OCc3ccccc3)ccc21
